Source: ChEMBL document CHEMBL1146589, “Potential cncer chemopreventive flavonoids from the stems of Tephrosia toxicaria” (J Nat Prod, 2003)

Columns and labels:
[1] = Inhibition of mouse Hepa-1c1c7 cells by MTT assay; assay type: cell-based
[2] = Inhibition of 7,12-dimethylbenz[a]anthracene-induced preneoplastic lesions in a mouse mammary gland culture at 10 ug/mL; assay type: functional
[3] = Chemoprevention index, ratio of IC50 for mouse Hepa-1c1c7 cells to drug level required to double NADPH:quinone reductase activity in mouse Hepa-1c1c7 cells; assay type: functional
[4] = tissue or blood; conditions: Mus musculus, Mammary gland, read-out: INH
Description: Inhibition of 7,12-dimethylbenz[a]anthracene-induced preneoplastic lesions in a mouse mammary gland culture at 1 ug/mL

Row | SMILES | IC50 [1] [µM] | inhibition at 10 µg/mL [2] [%] | Ratio [3] | inhibition at 1 µg/mL [4] [%]
1 | COc1cc2c(cc1OC)-c1c(oc3c4c(cc(O)c3c1=O)OC(C)(C)C=C4)CO2 | > 47 | 19 |  | 
2 | COc1cc2c(cc1OC)[C@]1(O)C(=O)c3c(O)cc4c(c3O[C@@H]1CO2)C=CC(C)(C)O4 | > 47 | 60 |  | 
3 | COc1cc(O)c2c(c1/C=C/C(C)=O)O[C@H](c1ccccc1)CC2=O | > 14.9 | 0 | >1.4 | 
4 | COc1cc2c(cc1OC)[C@]1(O)C(=O)c3c(O)cc4c(c3O[C@@H]1CO2)C(OC)C(O)C(C)(C)O4 (stereo partly drawn) | 9.1 |  | 1.4 | 
5 | COc1cc(-c2cc(=O)c3c(O)cc(O)cc3o2)ccc1O [CHRYSOERIOL] | 36 |  | 3.1 | 
6 | O=c1c(-c2ccc(O)cc2)coc2cc(O)cc(O)c12 [GENISTEIN] | 45.2 |  | 2 | 
7 | O=C(/C=C/c1ccc(O)cc1)c1ccc(O)cc1O [ISOLIQUIRITIGENIN] | 36.3 | 76 | 10.1 | 
8 | C[S+]([O-])CCCCN=C=S (stereo not drawn) [SULFORAPHANE] | 11 |  | 25 | 83.7
9 | C=C(C)[C@H]1Cc2c(cc(O)c3c2O[C@@H]2COc4cc(OC)c(OC)cc4[C@@H]2C3=O)O1 [SUMATROL] | > 47 | 49.9 |  | 
10 | COc1cc2c(cc1OC)[C@@H]1C(=O)c3c(O)cc4c(c3O[C@@H]1CO2)C=CC(C)(C)O4 [TOXICAROL] | > 47 | 80 |  | 
